From patent US10952436B2, “Microbiocidal quinoline (thio)carboxamide derivatives” (SYNGENTA PARTICIPATIONS AG, priority 2017, dated 2021)

Assays:
Fusarium culmorum [1] = assay: whole plant or invertebrate; assay type: in vivo; conditions: in Triticum aestivum, read-out: control of Fusarium culmorum
[2] = system: Monographella nivalis (Microdochium nivale); assay: Monographella nivalis (Microdochium nivale)/Liquid Culture (Foot Rot Cereals); assay type: cell-based; conditions: 200 ppm, liquid culture, compared to untreated control, 4-5 days after application, read-out: control of Monographella nivalis
[3] = system: Glomerella lagenarium (Colletotrichum lagenarium); assay: Glomerella lagenarium (Colletotrichum lagenarium)/Liquid Culture (Anthracnose); assay type: cell-based; conditions: Colletotrichum orbiculare; 200 ppm; liquid culture, compared to untreated control, 3-4 days after application; read-out: control of Glomerella lagenarium
[4] = system: Botryotinia fuckeliana (Botrytis cinerea); assay: Botryotinia fuckeliana (Botrytis cinerea)/Liquid Culture (Gray Mould); assay type: cell-based; conditions: 200 ppm, liquid culture, compared to untreated control, 3-4 days after application, read-out: control of Botryotinia fuckeliana
[5] = system: Magnaporthe grisea (Pyricularia oryzae); assay: microbe, parasite or virus in culture; assay type: cell-based; conditions: read-out: control of Magnaporthe grisea
Fusarium culmorum [6] = assay: microbe, parasite or virus in culture; assay type: cell-based; conditions: read-out: control of Fusarium culmorum

C[C@@](Cc1ccccc1)(CC(F)(F)F)C(=O)Nc1cnc2c(F)cccc2c1 (single isomer, unassigned) [Compound F-24]
≥ 80%: pest or weed control at 200 ppm (Fusarium culmorum [1]) | inhibition of growth at 200 ppm [2] | inhibition of growth at 200 ppm [3] | inhibition of growth at 200 ppm [4] | inhibition of growth at 200 ppm [5] | inhibition of growth at 200 ppm (Fusarium culmorum [6])

C#CCC(C)(Cc1ccccc1)C(=O)Nc1cnc2c(F)cccc2c1C (centres unmarked) [Compound E-3, 2-benzyl-N-(8-fluoro-4-methyl-3-quinolyl)-2-methyl-pent-4-ynamide]
≥ 80%: inhibition of growth at 200 ppm [2] | inhibition of growth at 200 ppm [3] | inhibition of growth at 200 ppm [4] | inhibition of growth at 200 ppm (Fusarium culmorum [6])

CC(C)CC(C)(Cc1cccc(F)c1)C(=O)Nc1cnc2c(F)cccc2c1 (centres unmarked) [Compound E-7, 2-[(3-fluorophenyl)methyl]-N-(8-fluoro-3-quinolyl)-2,4-dimethyl-pentanamide]
≥ 80%: inhibition of growth at 200 ppm [2] | inhibition of growth at 200 ppm [3] | inhibition of growth at 200 ppm [4] | inhibition of growth at 200 ppm [5] | inhibition of growth at 200 ppm (Fusarium culmorum [6])

C=C(CC(C)(Cc1ccccc1)C(=O)Nc1cnc2c(F)cccc2c1)C(F)(F)F (centres unmarked) [Compound E-23, 2-benzyl-N-(8-fluoro-3-quinolyl)-2-methyl-4-(trifluoromethyl)pent-4-enamide]
≥ 80%: inhibition of growth at 200 ppm [2] | inhibition of growth at 200 ppm [3] | inhibition of growth at 200 ppm [4] | inhibition of growth at 200 ppm [5] | inhibition of growth at 200 ppm (Fusarium culmorum [6])

C=C(C(Cc1ccccc1)C(=O)Nc1cnc2c(F)cccc2c1)C(F)(F)F (centres unmarked) [Compound E-24, 2-benzyl-N-(8-fluoro-3-quinolyl)-3-(trifluoromethyl)but-3-enamide]
≥ 80%: inhibition of growth at 200 ppm [2] | inhibition of growth at 200 ppm [3] | inhibition of growth at 200 ppm [4] | inhibition of growth at 200 ppm [5] | inhibition of growth at 200 ppm (Fusarium culmorum [6])

C/C=C(\C)CC(C)(Cc1ccccc1)C(=O)Nc1cnc2c(F)cccc2c1 (centres unmarked) [Compound E-32, (E)-2-benzyl-N-(8-fluoro-3-quinolyl)-2,4-dimethyl-hex-4-enamide]
≥ 80%: pest or weed control at 200 ppm (Fusarium culmorum [1]) | inhibition of growth at 200 ppm [2] | inhibition of growth at 200 ppm [3] | inhibition of growth at 200 ppm [4] | inhibition of growth at 200 ppm [5] | inhibition of growth at 200 ppm (Fusarium culmorum [6])

CC(CCC(F)F)(Cc1ccccc1)C(=O)Nc1cnc2c(F)cccc2c1 (centres unmarked) [Compound E-34, 2-benzyl-5,5-difluoro-N-(8-fluoro-3-quinolyl)-2-methyl-pentanamide]
≥ 80%: inhibition of growth at 200 ppm [3] | inhibition of growth at 200 ppm [4] | inhibition of growth at 200 ppm [5] | inhibition of growth at 200 ppm (Fusarium culmorum [6])

CC(C)CC(Cc1ccccc1)C(=O)Nc1cnc2c(F)cccc2c1 (centres unmarked) [Compound E-35, 2-benzyl-N-(8-fluoro-3-quinolyl)-4-methyl-pentanamide]
≥ 80%: pest or weed control at 200 ppm (Fusarium culmorum [1]) | inhibition of growth at 200 ppm [3] | inhibition of growth at 200 ppm [4] | inhibition of growth at 200 ppm [5] | inhibition of growth at 200 ppm (Fusarium culmorum [6])

CCC(C)CC(C)(Cc1ccccc1)C(=O)Nc1cnc2c(F)cccc2c1 (centres unmarked) [Compound E-36, 2-benzyl-N-(8-fluoro-3-quinolyl)-2,4-dimethyl-hexanamide]
≥ 80%: inhibition of growth at 200 ppm [2] | inhibition of growth at 200 ppm [3] | inhibition of growth at 200 ppm [4] | inhibition of growth at 200 ppm [5] | inhibition of growth at 200 ppm (Fusarium culmorum [6])

Cc1nc2c(F)cccc2cc1NC(=O)C(C)(Cc1ccccc1)OC(C)C (centres unmarked) [Compound E-39, N-(8-fluoro-2-methyl-3-quinolyl)-2-isopropoxy-2-methyl-3-phenyl-propanamide]
≥ 80%: pest or weed control at 200 ppm (Fusarium culmorum [1]) | inhibition of growth at 200 ppm [2] | inhibition of growth at 200 ppm [3] | inhibition of growth at 200 ppm [4] | inhibition of growth at 200 ppm [5] | inhibition of growth at 200 ppm (Fusarium culmorum [6])

CC(C)OC(C)(Cc1ccccc1)C(=O)Nc1cnc2c(F)cccc2c1 (centres unmarked) [Compound E-40, N-(8-fluoro-3-quinolyl)-2-isopropoxy-2-methyl-3-phenyl-propanamide]
≥ 80%: pest or weed control at 200 ppm (Fusarium culmorum [1]) | inhibition of growth at 200 ppm [2] | inhibition of growth at 200 ppm [3] | inhibition of growth at 200 ppm [4] | inhibition of growth at 200 ppm [5] | inhibition of growth at 200 ppm (Fusarium culmorum [6])

COC(C)(Cc1ccccc1)C(=O)Nc1cc2cccc(F)c2nc1C (centres unmarked) [Compound E-41, N-(8-fluoro-2-methyl-3-quinolyl)-2-methoxy-2-methyl-3-phenyl-propanamide]
≥ 80%: pest or weed control at 200 ppm (Fusarium culmorum [1]) | inhibition of growth at 200 ppm [2] | inhibition of growth at 200 ppm [3] | inhibition of growth at 200 ppm [4] | inhibition of growth at 200 ppm [5] | inhibition of growth at 200 ppm (Fusarium culmorum [6])

CC(Cc1ccccc1)(CC(F)F)C(=O)Nc1cnc2c(F)cccc2c1 (centres unmarked) [Compound E-55, 2-benzyl-4,4-difluoro-N-(8-fluoro-3-quinolyl)-2-methyl-butanamide]
≥ 80%: pest or weed control at 200 ppm (Fusarium culmorum [1]) | inhibition of growth at 200 ppm [2] | inhibition of growth at 200 ppm [3] | inhibition of growth at 200 ppm [4] | inhibition of growth at 200 ppm [5] | inhibition of growth at 200 ppm (Fusarium culmorum [6])

CON(C(=O)C(C)(Cc1ccccc1)CC(C)C)c1cnc2c(F)cccc2c1 (centres unmarked) [Compound E-61, 2-benzyl-N-(8-fluoro-3-quinolyl)-N-methoxy-2,4-dimethyl-pentanamide]
≥ 80%: inhibition of growth at 200 ppm [2] | inhibition of growth at 200 ppm [3] | inhibition of growth at 200 ppm [4] | inhibition of growth at 200 ppm [5] | inhibition of growth at 200 ppm (Fusarium culmorum [6])

C=C(C)CC(C)(Cc1ccccc1)C(=O)Nc1cnc2ccc(OC)cc2c1 (centres unmarked) [Compound E-62, 2-benzyl-N-(6-methoxy-3-quinolyl)-2,4-dimethyl-pent-4-enamide]
≥ 80%: inhibition of growth at 200 ppm [2]

O=C(Nc1cnc2ccccc2c1)C(Cc1ccccc1)CC(F)(F)F (centres unmarked) [Compound E-79, 2-benzyl-4,4,4-trifluoro-N-(3-quinolyl)butanamide]
≥ 80%: inhibition of growth at 200 ppm [3] | inhibition of growth at 200 ppm [4] | inhibition of growth at 200 ppm [5] | inhibition of growth at 200 ppm (Fusarium culmorum [6])

Cc1nc2c(F)cccc2cc1NC(=O)C(C)(Cc1ccccc1)CC(C)C (centres unmarked) [Compound E-86, 2-benzyl-N-(8-fluoro-2-methyl-3-quinolyl)-2,4-dimethyl-pentanamide]
≥ 80%: pest or weed control at 200 ppm (Fusarium culmorum [1]) | inhibition of growth at 200 ppm [2] | inhibition of growth at 200 ppm [3] | inhibition of growth at 200 ppm [4] | inhibition of growth at 200 ppm (Fusarium culmorum [6])

C#CCC(Cc1ccccc1)C(=O)Nc1cnc2c(F)cccc2c1C (centres unmarked) [Compound E-95]
≥ 80%: inhibition of growth at 200 ppm [2] | inhibition of growth at 200 ppm [3] | inhibition of growth at 200 ppm [4] | inhibition of growth at 200 ppm (Fusarium culmorum [6])

C[C@@](Cc1ccccc1)(CC(F)(F)F)C(=O)Nc1cnc2c(F)c(F)ccc2c1 [Compound F-16, (2R)-2-benzyl-N-(7,8-difluoro-3-quinolyl)-4,4,4-trifluoro-2-methyl-butanamide]
≥ 80%: inhibition of growth at 200 ppm [2] | inhibition of growth at 200 ppm [3] | inhibition of growth at 200 ppm [4] | inhibition of growth at 200 ppm [5] | inhibition of growth at 200 ppm (Fusarium culmorum [6])

Cc1cccc2cc(NC(=O)[C@@](C)(Cc3ccccc3)CC(F)(F)F)cnc12 [Compound F-17, (2S)-2-benzyl-4,4,4-trifluoro-2-methyl-N-(8-methyl-3-quinolyl)butanamide]
≥ 80%: inhibition of growth at 200 ppm [2] | inhibition of growth at 200 ppm [3] | inhibition of growth at 200 ppm [4] | inhibition of growth at 200 ppm [5] | inhibition of growth at 200 ppm (Fusarium culmorum [6])

Cc1cccc2cc(NC(=O)[C@](C)(Cc3ccccc3)CC(F)(F)F)cnc12 [Compound F-18, (2R)-2-benzyl-4,4,4-trifluoro-2-methyl-N-(8-methyl-3-quinolyl)butanamide]
≥ 80%: inhibition of growth at 200 ppm [2] | inhibition of growth at 200 ppm [3] | inhibition of growth at 200 ppm [4] | inhibition of growth at 200 ppm [5] | inhibition of growth at 200 ppm (Fusarium culmorum [6])

CC(C)C[C@](C)(Cc1ccccc1)C(=O)Nc1cnc2c(F)cccc2c1 [Compound F-19, (2R)-2-benzyl-N-(8-fluoro-3-quinolyl)-2,4-dimethyl-pentanamide]
≥ 80%: pest or weed control at 200 ppm (Fusarium culmorum [1]) | inhibition of growth at 200 ppm [3] | inhibition of growth at 200 ppm [4] | inhibition of growth at 200 ppm (Fusarium culmorum [6])
